Laboratory results taken from patent US9593363B2, “Methods and models for assessing anti-aging benefits of agents” (The Procter & Gamble Company, priority 2012, dated 2017).

Legend:
Format in all cases: cell-based
[1] = system: epidermal gene panel; assay: ex vivo human skin tissue culture, PCR fold change of epidermal gene panel vs untreated control; settings: 5 day time course, 33° C.; for relative fold change of epidermal gene panel (rank order): 70% relative humidity (FIG. 5A); for regulation of AQP3 / regulation of KRT10 and FLG: 70% relative humidity, tRA media applied, retinol and retinol propionate topically applied, N=6 (FIG. 5A)
Description: Referring to FIG. 5A, a bar graph illustrates the fold change (compared to an untreated control) for the epidermal gene panel of FIG. 3 following media dosing with trans-retinoic acid (tRA), retinol, or retinol propionate (RP) over a 5 day time course. […] The doses were applied over a 5 day time course during which tRA was media applied while retinol and retinol propionate were topically applied to the ex-vivo tissue samples (N=6 per material) incubated at 33° C. and 70% relative humidity. At the end of 5 days, two 4 mm punch biopsies were removed from each of the tissue samples for RNA isolation followed by PCR analysis.
The fold-increase/decrease in expression, versus an untreated control, was determined for the epidermal gene panel set forth in FIG. 3 for ex vivo tissue from a single donor over a 7 day time course incubated at 37° C. at a relative humidity of 55%. The test agents were applied topically.

[2] = system: retinoid metabolism gene panel; assay: ex vivo human skin tissue culture, PCR fold change of retinoid gene panel; settings: for regulation of CYP26A1, ALDH1A2, RDH10, RARRES1 and LRAT: by Day 7 compared to Day 5, single donor, tRA media, retinol propionate topical (FIG. 6C); for regulation of CRABP2, RARG and CEBPA / regulation of Cyp26B1: day 7, 37° C., tRA media applied, retinol propionate topically applied (FIG. 6C)
Description: FIGS. 6A, 6B, and 6C provide heat maps illustrating the fold change for the gene panel of FIG. 3 over a 7 day time course following media dosing with the tRA and retinol propionate. The cells in FIGS. 6A, 6B, and 6C are cross-hatched in the same way as the cells in FIG. 4 (i.e., see the legend provided in FIG. 4). The tRA was media applied and the retinol propionate was topically applied to the ex-vivo tissue samples (N=6 per material), which were incubated at 37° C. and 50% relative humidity. At the end of 48 hours, 5 days and 7 days, two 4 mm punch biopsies were removed from each of the tissue samples for RNA isolation followed by PCR analysis. […] These genes are all important in retinoic acid-mediated regulation of human skin growth and differentiation.
Referring again to FIGS. 6A, 6B, and 6C, the fold change data from a single donor over a 7 day time course is shown for media application of tRA and topical application of retinol propionate.
(§1) Skin preparation involved preparation of media in advance of the arrival of skin (3× media including 500 ml DMEM plus 15 ml of antibiotic and antimycotics; the 3× referred to 3-fold levels of antibiotics/antimycotics used for the initial hour of incubation; 1× Media: 500 ml DMEM plus 5 ml of antibiotic and antimycotics). The skin arrived with the dermis (fat) side down on sterile DMEM soaked gauze in a sterile culture dish. The culture dish was taped shut and in a biohazard zip-lock baggie on an ice pack in a secondary container.
(§2) On arrival, the skin was removed from the bag and soaked in 3×DMEM media and stored at 4° C. for 1 hour. After 1 hour, the skin was removed from the 3×DMEM and rinsed with sterile 1×PBS. The skin was placed in a clean culture dish containing gauze soaked with 1×DMEM. The sample was put in culture the same day as arrival; though the sample may be stored overnight at 4° C. if desired.
(§3) In preparation for culture, the following were performed on the skin tissue. On a cutting mat, the skin tissue was positioned such that the epidermis was down and the fat was exposed. The fat was removed with a disposable scalpel by carefully grasping one corner of the skin with sterile serrated forceps and scraping the fat away with the blade held at a 45 degree angle to the skin. After the fat was removed, the surgical edges were cut off with a scalpel using a scraper as a straight edge guide and to hold the skin in place. Using the scraper as a guide, the skin was cut into 1.25 cm wide strips using a ruler (such as the one on optionally provided on the cutting mat) to measure the width. The strip was rinsed in a 100 mm culture dish containing 1×PBS. The strips were cut into 1.25 cm squares and placed in a 100 mm culture dish onto 1×DMEM soaked gauze until they were put into culture 30 minutes later (with time points of 15 minutes, 30 minutes, 45 minutes, or an hour being used in various non-limiting examples).
(§4) Culturing involved putting 2.5 ml of media or treatment into each well of a 6-well tissue plate, adding one Millicell® brand culture insert to each well, and putting 100 μl of 1×DMEM on the center of each insert membrane. The skin sample squares were selected randomly and placed into each of the inserts (one skin sample per insert), on top of the media on the membrane. The plates were stored at 33° C. (though an additional non-limiting example would be 37° C. depending on the experiment endpoint). As a control, baseline tissue measurements were collected from excess waste (cryogenics were used for snap freezing). Baseline biopsy collection involved from each tissue piece; one 4 mm punch for MTT; one 4 mm punch (snap frozen in OCT) for fresh histology; One 4 mm punch was fixed in 10% formalin for paraffin embedding and two 4 mm punches (snap frozen in liquid nitrogen) for PCR.
Culture and treatment of the model comprised replicates of n=6 (though replicates of additional quantities may be used such as n=5).

[3] = system: TGFβ-2 and TGFβ-3; assay: ex vivo human skin tissue culture, PCR fold change of TGFβ-2 and TGFβ-3; settings: media dosing, 33° C., 55% relative humidity, 4 and 7 days, N=6 (FIG. 4)
Description: FIG. 4 illustrates a heat map of the fold change of some of the genes from FIG. 3 following media dosing of ex vivo tissue samples (N=6 per material) incubated at 33° C. and 55% relative humidity with four materials over a 7 day time course. Cross-hatching is provided in some of the cells of the table in FIG. 4 to indicate statistically significant up-regulation (p value≦0.05 and p value≦0.1) and statistically significant down regulation p value≦0.05 and p value≦0.1). In addition to TGFβ-1, three exogenous materials believed to provide one or more in vivo, anti-aging skin benefits were tested. The three exogenous materials tested were a vitamin B3 compound (i.e., niacinamide), a peptide (i.e., PAL-KT brand peptide (palmitoyl-lysine-threonine)), and an olive oil extract (i.e., OLIVEM 460 brand olive oil extract). Niacinamide is believed to provide a number of cosmetic skin care benefits (see, e.g., Bissett el al. “Niacinamide: A B Vitamin that Improves Aging Facial Skin Appearance” and Draelos “Clinical Situations Conducive to Proactive Skin Health and Anti-Aging Improvement”). […]

[4] = system: dermal gene panel; assay: ex vivo human skin tissue culture, PCR fold change of dermal gene panel vs untreated control
Description: The culturing temperature can also affect the pattern and magnitude of the gene regulation in ex vivo tissue samples. Referring to FIGS. 9A and 9B, heat maps illustrate the fold changes for nine dermal genes for five different donor tissue samples incubated at 33° C. for 7 days and 50% relative humidity and five different donor tissue samples incubated at 37° C. for 7 days at 50% relative humidity. The tissue samples were treated with a media supplied dose of 20 ng/ml of TGFβ-1. […]
Referring to FIG. 18, an olive oil extract, an artichoke leaf extract, and a blend of these extracts were evaluated according to methods described herein. The cells in the table of FIG. 18 are cross-hatched in the same way as the cells in the table of FIG. 4 (i.e., see the legend provided in FIG. 4). The fold-increase/decrease in expression, versus an untreated control, was determined for the dermal gene panel set forth in FIG. 3 for ex vivo tissue from a single donor over a 7 day time course. The skin samples were incubated at a temperature of 37° C. and a relative humidity of 55%. The test agents were applied topically to the skin samples. […] This is another example of identifying actives that may synergistically provide anti-aging benefit.
as §1, §2, §3
as §4, with “Baseline biopsy collection involved from each tissue piece; one 4 mm punch for MTT; one 4 mm punch (snap frozen in OCT) for fresh histology; One 4 mm punch was fixed in 10% formalin for paraffin embedding and two 4 mm punches (snap frozen in liquid nitrogen) for PCR.” left out

[5] = 33° C., 7 days, 50% relative humidity, media 20 ng/ml, five donors (FIG. 9B)

Compound | relative fold change of epidermal gene panel (rank order) [1] | regulation of AQP3 [1] | regulation of KRT10 and FLG [1] | regulation of CYP26A1, ALDH1A2, RDH10, RARRES1 and LRAT [2] | regulation of CRABP2, RARG and CEBPA ([2]; 50% relative humidity) | regulation of Cyp26B1 ([2]; 50% relative humidity) | other results
CCC(=O)OC/C=C(C)/C=C/C=C(C)/C=C/C1=C(C)CCCC1(C)C [retinol propionate] | tRA>retinol>retinol propionate | up-regulated | significantly down-regulated | down-regulated with statistical significance | strongly up-regulate | strongly up-regulated | –
CC1=C(/C=C/C(C)=C/C=C/C(C)=C/CO)C(C)(C)CCC1 [retinol] | tRA>retinol>retinol propionate | up-regulated | significantly down-regulated | – | – | – | –
palmitoyl-lysine-threonine [peptide] | – | – | – | – | – | – | regulation of TGFβ-2 and TGFβ-3 [3]: up-regulated
CC1=C(/C=C/C(C)=C/C=C/C(C)=C/C(=O)O)C(C)(C)CCC1 [tRA, trans-retinoic acid] | tRA>retinol>retinol propionate | up-regulated | significantly down-regulated | down-regulated with statistical significance | strongly up-regulate | strongly up-regulated | response of retinoid metabolism genes, tRA compared with RP ([2]; 37° C., 50% relative humidity, 48 hours to 7 days (FIGS. 6A-6C)): stronger response
TGFβ-1: endogenous gene stimulative compound, known regulator of dermal matrix genes; used as positive control | – | – | – | – | – | – | regulation of ELN and LOXL2 [4, 5]: did not show statistically significant up-regulation; regulation of FN1, COL1A1 and COL3A1 [4, 5]: significantly up-regulated; statistically significant up-regulation of ELN and LOXL2 across a majority of donors ([4]; 37° C., 7 days, 50% relative humidity, media 20 ng/ml, five donors (FIG. 9A)): did at 37 °C; regulation of FN1, LOXL2, COL3A1, ELN and LOXL1 ([4]; 24 hrs, media application 20 ng/ml, single donor, 37° C., 50% relative humidity (FIG. 8A)): significantly regulated; number of statistically significant genes up-regulated at 37° C. versus 33° C. ([4]; 7 days, 50% relative humidity, media 20 ng/ml, nine dermal genes): increased dramatically; donor tissues with statistically significant up-regulation of at least FN1, COL1A1 and ELN ([4]; media 20 ng/ml, 11 days, 33° C., 70% relative humidity, eight donor tissues (FIG. 15)): 80%; time of most robust response of dermal genes ([4]; media application 20 ng/ml, single donor, 37° C., 50% relative humidity, 1 to 7 days (FIG. 8A)): between Day 5 and Day 7; regulation of FN1, COL1A1 and COL3A1 ([4]; media applied 20 ng/ml, single donor, time course 24 hrs to 7 days (FIG. 2)): increasingly up-regulated; response of dermal genes ([4]; media supplied (FIGS. 2, 4, 7 and 8)): strong, consistent, up-regulation response
